Literature values in patent US11780971B2, “Active yarns and textiles for the stabilization and controlled release of active compounds” (priority 2018, dated 2023).
“And” between values parts separate entries of the source, which are not always exact repeats. Equal entries are not always repeated.

Test system: Staphylococcus aureus strain

- Minimum Inhibitory Concentration (MIC): 0.625 mg/mL and 0.662 mg/mL
Structure (SMILES): C=CCc1ccc(O)c(OC)c1 [eugenol]
